# Experimental data: patent publication US5789602A, “Physiologically active substances PF1092A, PF1092B and PF1092C, process for the production thereof, and contraceptives and anticancer drugs containing the same as active ingredients” (Meiji Seika Kaisha, Ltd., priority 1995, dated 1998)
# “Also recorded” adds a separate entry of the source.
# Tests used:
# [1] = target: T1, progesterone receptor (Sus scrofa, UniProt D0EWS6); test: progesterone receptor binding activity (3H-progesterone, hog uterus cytosol); design: species or system hogs; conditions: 1 h, 30 μM test substance, 4° C., 60 minutes, read-out: inhibition of the binding of 3H-progesterone to the progesterone receptor (inhibition ratio)
# T1 construct: from tissue; host or cells: hog uterus, cytosol (100,000×g supernatant)
# T1 sequence (D0EWS6 1-934): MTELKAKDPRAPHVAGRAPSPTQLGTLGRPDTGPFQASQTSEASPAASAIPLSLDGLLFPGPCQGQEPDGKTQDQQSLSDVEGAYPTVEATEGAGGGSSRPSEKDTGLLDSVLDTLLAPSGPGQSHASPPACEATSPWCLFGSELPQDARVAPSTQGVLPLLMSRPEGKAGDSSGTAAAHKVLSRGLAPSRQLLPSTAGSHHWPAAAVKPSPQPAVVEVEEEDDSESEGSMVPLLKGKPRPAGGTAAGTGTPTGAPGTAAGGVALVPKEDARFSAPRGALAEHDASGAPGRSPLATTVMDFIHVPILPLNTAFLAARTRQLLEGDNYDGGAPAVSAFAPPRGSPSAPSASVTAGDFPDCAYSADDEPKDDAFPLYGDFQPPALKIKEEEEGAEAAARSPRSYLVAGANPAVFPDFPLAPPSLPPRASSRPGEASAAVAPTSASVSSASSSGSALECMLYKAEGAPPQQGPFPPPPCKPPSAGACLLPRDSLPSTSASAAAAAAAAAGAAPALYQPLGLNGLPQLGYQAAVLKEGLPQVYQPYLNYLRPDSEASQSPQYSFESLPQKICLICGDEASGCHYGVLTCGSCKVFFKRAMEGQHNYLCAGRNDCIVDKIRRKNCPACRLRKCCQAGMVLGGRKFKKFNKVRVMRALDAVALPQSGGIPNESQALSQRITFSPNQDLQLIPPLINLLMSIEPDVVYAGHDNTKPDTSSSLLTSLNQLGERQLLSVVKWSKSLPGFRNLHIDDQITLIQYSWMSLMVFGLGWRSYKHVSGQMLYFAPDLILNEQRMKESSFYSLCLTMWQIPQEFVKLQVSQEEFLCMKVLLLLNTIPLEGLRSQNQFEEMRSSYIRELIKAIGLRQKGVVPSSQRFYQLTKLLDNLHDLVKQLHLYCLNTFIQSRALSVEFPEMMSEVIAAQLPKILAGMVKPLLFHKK
# Procedure: The progesterone receptor binding activity of substance PF1092A, substance PF1092B and substance PF1092C of the present invention was measured in the following manner in accordance with the method of H. Kondo et al. (J. Antibiotics, vol. 43, pp. 1533-1542, 1990). That is, uteri taken from hogs in 5 mM phosphate buffer were disrupted using Polytron homogenizer, and the resulting solution was subjected to centrifugation (100,000×g, 30 minutes) to separate the supernatant fluid which was used as the cytosol containing progesterone receptor.
# In the assay of progesterone receptor binding activity, 40 μl of a solution of ^3 H-progesterone as a ligand of the receptor (3.84 TBq/mmol, 18.5 kBq/ml), 50 μl of the just obtained cytosol (2-3 mg protein/ml), 30 μM of substance PF1092A, substance PF1092B and substance PF1092C and 30 μM of medroxyprogesterone acetate (MPA) were put into a test tube and incubated at 4° C. for 60 minutes to effect the reaction and then mixed with 100 μl of 0.5% activated carbon solution. After 10 minutes of standing, this was subjected to centrifugation (2,000×g, 10 minutes), and radioactivity of the thus obtained supernatant fluid was measured using a liquid scintillation counter. Inhibition ratio was calculated based on the following formula in which radioactivity with no addition of the test drug was defined as the amount of total binding to the cytosol and radioactivity with the addition of MPA was defined as the amount of non-specific binding. [formula]
# [2] = Solubility (physico-chemical properties); type: physicochemical; conditions: qualitative, in organic solvents and in water
SMILES,inhibition at 30 µM [1] [%],Solubility [2]
CC1=C2CC3(C)C(=CC(O)C(O)C3C)C=C2OC1=O (stereo not drawn) [PF1092C],~70,"soluble in chloroform, acetone, ethyl acetate, methanol and dimethyl sulf oxide, and insoluble in water and hexane; also recorded: soluble in chloroform, acetone, ethyl acetate, methanol and dimethyl sulfoxide, and insoluble in water and hexane"
CC(=O)OC1C=C2C=C3OC(=O)C(C)=C3CC2(C)C(C)C1O (stereo not drawn) [PF1092B],≥ 90,"soluble in chloroform, acetone, ethyl acetate, methanol and dimethyl sulfoxide, and insoluble in water and hexane"
CC(=O)OC1C(O)C=C2C=C3OC(=O)C(C)=C3CC2(C)C1C (stereo not drawn) [PF1092A],≥ 90,"soluble in chloroform, acetone, ethyl acetate, methanol and dimethyl sulfoxide, and insoluble in water and hexane"
